Numbers after ± are expanded uncertainties.
Test: xn = mol fraction of the nth substance listed
Conditions: Fluid (supercritical or subcritical phases)

[N-]=[N+]=O [nitrous oxide] + FC(F)F
isochoric method
Conditions | molar volume [m3/mol]
253.03 K, 1464.8 kPa, x1 = 0.1116 | 0.001035 ± 1e-06
253.09 K, 1627.2 kPa, x1 = 0.4162 | 0.000978 ± 1e-06
258 K, 1541.9 kPa, x1 = 0.1116 | 0.001035 ± 1e-06
258.06 K, 1905.9 kPa, x1 = 0.563 | 0.000867 ± 1e-06
258.08 K, 1718.9 kPa, x1 = 0.4162 | 0.000978 ± 1e-06
258.09 K, 1832.3 kPa, x1 = 0.2888 | 0.000828 ± 1e-06
262.96 K, 1968.2 kPa, x1 = 0.563 | 0.000867 ± 1e-06
263.06 K, 1593.9 kPa, x1 = 0.1116 | 0.001035 ± 1e-06
263.06 K, 1774.4 kPa, x1 = 0.4162 | 0.000979 ± 1e-06
263.08 K, 1926.6 kPa, x1 = 0.2888 | 0.000829 ± 1e-06
267.94 K, 2030.3 kPa, x1 = 0.563 | 0.000867 ± 1e-06
268 K, 1644.1 kPa, x1 = 0.1116 | 0.001035 ± 1e-06
268.04 K, 1829.1 kPa, x1 = 0.4162 | 0.000979 ± 1e-06
268.04 K, 1991.7 kPa, x1 = 0.2888 | 0.000829 ± 1e-06
268.04 K, 2663.9 kPa, x1 = 0.6362 | 0.000591 ± 1e-06
272.9 K, 1693.3 kPa, x1 = 0.1116 | 0.001035 ± 1e-06
272.93 K, 2055.2 kPa, x1 = 0.2888 | 0.000829 ± 1e-06
272.95 K, 2091.7 kPa, x1 = 0.563 | 0.000867 ± 1e-06
273.02 K, 2765.9 kPa, x1 = 0.6362 | 0.000591 ± 1e-06
273.03 K, 1883 kPa, x1 = 0.4162 | 0.000979 ± 1e-06
282.83 K, 2180.4 kPa, x1 = 0.2888 | 0.000829 ± 1e-06
282.84 K, 1790.6 kPa, x1 = 0.1116 | 0.001036 ± 1e-06
283 K, 1988.8 kPa, x1 = 0.4162 | 0.000979 ± 1e-06
283 K, 2957.6 kPa, x1 = 0.6362 | 0.000591 ± 1e-06
283.02 K, 2213.7 kPa, x1 = 0.563 | 0.000868 ± 1e-06
292.93 K, 3143.3 kPa, x1 = 0.6362 | 0.000591 ± 1e-06
293.06 K, 1887.6 kPa, x1 = 0.1116 | 0.001036 ± 1e-06
293.07 K, 2332 kPa, x1 = 0.563 | 0.000868 ± 1e-06
293.08 K, 2094.2 kPa, x1 = 0.4162 | 0.00098 ± 1e-06
298.02 K, 3235.8 kPa, x1 = 0.6362 | 0.000591 ± 1e-06
298.05 K, 1934.6 kPa, x1 = 0.1116 | 0.001037 ± 1e-06
298.08 K, 2145.4 kPa, x1 = 0.4162 | 0.00098 ± 1e-06
298.09 K, 2390.3 kPa, x1 = 0.563 | 0.000868 ± 1e-06
298.1 K, 2367.2 kPa, x1 = 0.2888 | 0.00083 ± 1e-06
308.02 K, 2027.4 kPa, x1 = 0.1116 | 0.001037 ± 1e-06
308.05 K, 3416.1 kPa, x1 = 0.6362 | 0.000592 ± 1e-06
308.06 K, 2246.6 kPa, x1 = 0.4162 | 0.000981 ± 1e-06
308.08 K, 2486.6 kPa, x1 = 0.2888 | 0.00083 ± 1e-06
308.42 K, 2509 kPa, x1 = 0.563 | 0.000869 ± 1e-06
317.83 K, 2615.8 kPa, x1 = 0.563 | 0.000869 ± 1e-06
318.02 K, 2345.8 kPa, x1 = 0.4162 | 0.000981 ± 1e-06
318.02 K, 2603.8 kPa, x1 = 0.2888 | 0.000831 ± 1e-06
318.03 K, 3592.6 kPa, x1 = 0.6362 | 0.000592 ± 1e-06
318.11 K, 2119.5 kPa, x1 = 0.1116 | 0.001037 ± 1e-06
328.1 K, 2210.6 kPa, x1 = 0.1116 | 0.001038 ± 1e-06
328.1 K, 2731.1 kPa, x1 = 0.563 | 0.000869 ± 1e-06
328.11 K, 2445.5 kPa, x1 = 0.4162 | 0.000981 ± 1e-06
328.12 K, 3768.5 kPa, x1 = 0.6362 | 0.000592 ± 1e-06
328.13 K, 2721.6 kPa, x1 = 0.2888 | 0.000831 ± 1e-06
338.08 K, 2300.2 kPa, x1 = 0.1116 | 0.001038 ± 1e-06
338.08 K, 2543.3 kPa, x1 = 0.4162 | 0.000982 ± 1e-06
338.08 K, 2836.1 kPa, x1 = 0.2888 | 0.000831 ± 1e-06
338.09 K, 2842.1 kPa, x1 = 0.563 | 0.00087 ± 1e-06
338.09 K, 3939.9 kPa, x1 = 0.6362 | 0.000592 ± 1e-06
348.06 K, 2388.8 kPa, x1 = 0.1116 | 0.001039 ± 1e-06
348.06 K, 2949.9 kPa, x1 = 0.2888 | 0.000832 ± 1e-06
348.06 K, 2951.9 kPa, x1 = 0.563 | 0.00087 ± 1e-06
348.07 K, 2640.2 kPa, x1 = 0.4162 | 0.000982 ± 1e-06
348.07 K, 4110.3 kPa, x1 = 0.6362 | 0.000593 ± 1e-06
358.03 K, 2476.8 kPa, x1 = 0.1116 | 0.001039 ± 1e-06
358.03 K, 3062.3 kPa, x1 = 0.2888 | 0.000832 ± 1e-06
358.04 K, 2736.3 kPa, x1 = 0.4162 | 0.000983 ± 1e-06
358.05 K, 3061.1 kPa, x1 = 0.563 | 0.00087 ± 1e-06
358.05 K, 4278.2 kPa, x1 = 0.6362 | 0.000593 ± 1e-06

[N-]=[N+]=O [nitrous oxide] + FCF
Other PVT measurement
Conditions | molar volume [m3/mol]
283.32 K, 2978.6 kPa, x1 = 0.8042 | 0.000562 ± 1e-06
288.38 K, 3087.3 kPa, x1 = 0.8042 | 0.000562 ± 1e-06
293.46 K, 3188.3 kPa, x1 = 0.8042 | 0.000563 ± 1e-06
298.54 K, 2796 kPa, x1 = 0.5068 | 0.000644 ± 1e-06
298.6 K, 3286 kPa, x1 = 0.8042 | 0.000563 ± 1e-06
303.68 K, 2903.7 kPa, x1 = 0.5068 | 0.000644 ± 1e-06
303.68 K, 2988.3 kPa, x1 = 0.4207 | 0.000594 ± 1e-06
303.68 K, 3381.2 kPa, x1 = 0.8042 | 0.000563 ± 1e-06
308.76 K, 3475.8 kPa, x1 = 0.8042 | 0.000563 ± 1e-06
308.77 K, 2774.4 kPa, x1 = 0.2255 | 0.000631 ± 1e-06
308.77 K, 2991.7 kPa, x1 = 0.5068 | 0.000645 ± 1e-06
308.77 K, 3091.8 kPa, x1 = 0.4207 | 0.000594 ± 1e-06
313.85 K, 3190.6 kPa, x1 = 0.4207 | 0.000595 ± 1e-06
313.85 K, 3569.2 kPa, x1 = 0.8042 | 0.000563 ± 1e-06
313.86 K, 2875.7 kPa, x1 = 0.2255 | 0.000631 ± 1e-06
313.87 K, 3078.9 kPa, x1 = 0.5068 | 0.000645 ± 1e-06
318.94 K, 3288.2 kPa, x1 = 0.4207 | 0.000595 ± 1e-06
318.94 K, 3661.8 kPa, x1 = 0.8042 | 0.000563 ± 1e-06
318.95 K, 2971.2 kPa, x1 = 0.2255 | 0.000631 ± 1e-06
318.95 K, 3164.6 kPa, x1 = 0.5068 | 0.000645 ± 1e-06
324.03 K, 3384.5 kPa, x1 = 0.4207 | 0.000595 ± 1e-06
324.03 K, 3753.8 kPa, x1 = 0.8042 | 0.000563 ± 1e-06
324.04 K, 3064.8 kPa, x1 = 0.2255 | 0.000631 ± 1e-06
324.04 K, 3249.6 kPa, x1 = 0.5068 | 0.000645 ± 1e-06
329.13 K, 3157.2 kPa, x1 = 0.2255 | 0.000632 ± 1e-06
329.13 K, 3845.1 kPa, x1 = 0.8042 | 0.000563 ± 1e-06
329.14 K, 3334.1 kPa, x1 = 0.5068 | 0.000645 ± 1e-06
329.14 K, 3479.7 kPa, x1 = 0.4207 | 0.000595 ± 1e-06
334.22 K, 3248.1 kPa, x1 = 0.2255 | 0.000632 ± 1e-06
334.22 K, 3573.4 kPa, x1 = 0.4207 | 0.000595 ± 1e-06
334.23 K, 3417.4 kPa, x1 = 0.5068 | 0.000645 ± 1e-06
334.23 K, 3935.9 kPa, x1 = 0.8042 | 0.000564 ± 1e-06
339.33 K, 3338.3 kPa, x1 = 0.2255 | 0.000632 ± 1e-06
339.33 K, 3500 kPa, x1 = 0.5068 | 0.000645 ± 1e-06
339.34 K, 3666.5 kPa, x1 = 0.4207 | 0.000595 ± 1e-06
339.35 K, 4026.2 kPa, x1 = 0.8042 | 0.000564 ± 1e-06
344.43 K, 3581.9 kPa, x1 = 0.5068 | 0.000646 ± 1e-06
344.43 K, 3758.3 kPa, x1 = 0.4207 | 0.000595 ± 1e-06
344.43 K, 4115.4 kPa, x1 = 0.8042 | 0.000564 ± 1e-06
344.44 K, 3427.2 kPa, x1 = 0.2255 | 0.000632 ± 1e-06
353.6 K, 3922.3 kPa, x1 = 0.4207 | 0.000596 ± 1e-06
354.61 K, 3602.1 kPa, x1 = 0.2255 | 0.000632 ± 1e-06
354.62 K, 4293 kPa, x1 = 0.8042 | 0.000564 ± 1e-06

Source: the NIST ThermoML archive (doi:10.1016/j.fluid.2004.11.021)
